For data set [1], the system named is Candida albicans. In words: microbe, parasite or virus in culture. Type of data set: cell-based. The settings on record: Candida albicans; for MBC: read-out: MBC; for MIC: read-out: MIC. The protocol:
(§1) The minimum inhibitory concentration (MIC) of the Dex, AmB, Nap-FFDKY, Npx-FFDKY, Fmoc-FFDKY, Nap-AmB, Npx-AmB and Dex-AmB hydrogels was determined by a serial 2-fold dilution of test samples. Fourteen different concentrations of drugs and hydrogels were prepared in DMF solution. One millilitre of the fungal strain […] colony-forming unit (CFU)/tube was inoculated into each tube containing different concentrations (1 ml) of test samples and incubated at 28°C (200 rpm) for 24 h. The MIC was defined as the minimum concentration of the sample inhibiting the visible growth of the microorganism. The experiment was repeated at least three times. Based on the values of MIC, 0.1 ml of the fungal strain containing different concentrations of test samples which inhibited the visible growth of the microorganism was subcultivated on the Sabouraud's dextrose agar plates, and incubated at 28°C for 48 h. The minimum bactericidal concentration (MBC) determination was defined as the minimum concentration of the sample sterilizing the visible growth of the microorganism (lower than 5 CFU/plate). The experiment was repeated at least three times. Based on the values of MIC, the fungal strain containing 1 × MIC and 2 × MIC concentrations of test samples was incubated at 28°C. A test suspension containing 0.1 ml was taken out and used to evaluate fungus colonies at 0, 1, 2, 4, 6, 8, 12 and 24 h.

Data set [2] deals with Candida albicans. Description: Time-kill curves at 1 x MIC and 2 x MIC. Type of data set: cell-based. Conditions: C. albicans, 28°C, sampled 0, 1, 2, 4, 6, 8, 12 and 24 h, n = 3. The protocol: as §1
For data set [3] the following is noted: low bioavailability; cited from earlier work. An excerpt:
Invasive fungal infection has a significant influence on animal and plant life, which is a major cause of mortality that kills approximately 1.5 million people every year. Amphotericin B (AmB) is a broad-spectrum antifungal macrolide polyene antibiotic. Its antifungal effect is exerted by forming complexes with membrane sterols to allow the increase in the permeability of the fungal membrane. AmB is the most common antifungal agent used in clinical practice despite strong side-effects with low solubility and low bioavailability (less than 0.9%). Many researchers attempt ...

≈ marks a conversion by molar mass, not a printed value. Where two headings read alike, the source gives them in different places.

Consider `C[C@@H]1[C@H](O)[C@@H](C)/C=C/C=C/C=C/C=C/C=C/C=C/C=C/[C@H](O[C@@H]2O[C@H](C)[C@@H](O)[C@H](N)[C@@H]2O)C[C@@H]2O[C@](O)(C[C@@H](O)C[C@@H](O)[C@H](O)CC[C@@H](O)C[C@@H](O)CC(=O)O[C@H]1C)C[C@H](O)[C@H]2C(=O)O` [AmB, Amphotericin B], for which the MBC in the data set with Candida albicans [1] (C. albicans, 0.1 ml subcultivated on Sabouraud's dextrose agar, 28°C, 48 h, lower than 5 CFU/plate, repeated at least three times) was found to be 130 µg/mL (≈ 141 µM); in the data set with Candida albicans [1] (supplement Fig. S21), 130 µg/mL (≈ 141 µM). Besides, the MIC in the data set on Candida albicans [1] (C. albicans, serial 2-fold dilution, 14 concentrations prepared in DMF, 1 ml fungal strain 10^18 CFU/tube, 28°C, 200 rpm, 24 h, visible growth, repeated at least three times) was 4.06 µg/mL (≈ 4.39 µM); in the data set with Candida albicans [1] (supplement Fig. S21) it was 4.06 µg/mL (≈ 4.39 µM). Moreover, the “time for which antifungal activity is exhibited in time-kill curves” value in the data set on Candida albicans [2] worked out at 2 h. Besides, the bioavailability result in data set [3] is given as “less than 0.9%”.

These data come from PMC5882710, “Amphotericin B-conjugated polypeptide hydrogels as a novel innovative strategy for fungal infections” (Royal Society Open Science, 2018).
